Earlier results on one molecule are cited in patent US20130071904A1, “ACETATE-RESISTANT YEAST STRAIN FOR THE PRODUCTION OF A FERMENTATION PRODUCT” (priority 2010, published 2013).

SMILES strings stand for the structures.

This data set concerns Saccharomyces cells. To be noted: Pons et al. 1984.

Take `CC(=O)O` [Acetate]: the “effect on growth of Saccharomyces cells” value is listed as “inhibits the growth”.
